Earlier results in US20050181036A1 (Research Development Foundation, priority 2003, published 2005).
Entries after “also recorded” stand apart in the source; their conditions may differ.

COc1cc(/C=C/C(=O)CC(=O)/C=C/c2ccc(O)c(OC)c2)ccc1O [Curcumin, diferuloylmethane]
solubility in dimethylsulfoxide (dimethylsulfoxide): soluble
solubility in ethanol (ethanol): soluble
solubility in ether (ether): insoluble
solubility in water (water): insoluble; also recorded: not water-soluble
